SMILES strings stand for the structures.

This test deals with Ba/F3 V617F cells (Homo sapiens, UniProt O60674, V617F, cells depend on it). The test is described as follows: Proliferation assay (Cell Titer-Glo, 72 h) utilizing Ba/F3 V617F cells. The following applies: Ba/F3 V617F cells, proliferation, level of activity to inhibit JAK2, read-out: IC50 (the source's name). It is filed as cell-based, mouse. In outline: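 Ba/F3 V617F cells in RPMI/10% FBS, 1×10^5 cells/mL, exposed in duplicate to 3-fold serial compound dilutions (top 5 mM DMSO stock, diluted 1:250, added as 2× solution in 5% FBS medium) for 72 h at 37 °C. Viability by Cell Titer-Glo luminescence; IC50 reported.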
Ba/F3 V617F cells, sequence (O60674 whole entry V617F): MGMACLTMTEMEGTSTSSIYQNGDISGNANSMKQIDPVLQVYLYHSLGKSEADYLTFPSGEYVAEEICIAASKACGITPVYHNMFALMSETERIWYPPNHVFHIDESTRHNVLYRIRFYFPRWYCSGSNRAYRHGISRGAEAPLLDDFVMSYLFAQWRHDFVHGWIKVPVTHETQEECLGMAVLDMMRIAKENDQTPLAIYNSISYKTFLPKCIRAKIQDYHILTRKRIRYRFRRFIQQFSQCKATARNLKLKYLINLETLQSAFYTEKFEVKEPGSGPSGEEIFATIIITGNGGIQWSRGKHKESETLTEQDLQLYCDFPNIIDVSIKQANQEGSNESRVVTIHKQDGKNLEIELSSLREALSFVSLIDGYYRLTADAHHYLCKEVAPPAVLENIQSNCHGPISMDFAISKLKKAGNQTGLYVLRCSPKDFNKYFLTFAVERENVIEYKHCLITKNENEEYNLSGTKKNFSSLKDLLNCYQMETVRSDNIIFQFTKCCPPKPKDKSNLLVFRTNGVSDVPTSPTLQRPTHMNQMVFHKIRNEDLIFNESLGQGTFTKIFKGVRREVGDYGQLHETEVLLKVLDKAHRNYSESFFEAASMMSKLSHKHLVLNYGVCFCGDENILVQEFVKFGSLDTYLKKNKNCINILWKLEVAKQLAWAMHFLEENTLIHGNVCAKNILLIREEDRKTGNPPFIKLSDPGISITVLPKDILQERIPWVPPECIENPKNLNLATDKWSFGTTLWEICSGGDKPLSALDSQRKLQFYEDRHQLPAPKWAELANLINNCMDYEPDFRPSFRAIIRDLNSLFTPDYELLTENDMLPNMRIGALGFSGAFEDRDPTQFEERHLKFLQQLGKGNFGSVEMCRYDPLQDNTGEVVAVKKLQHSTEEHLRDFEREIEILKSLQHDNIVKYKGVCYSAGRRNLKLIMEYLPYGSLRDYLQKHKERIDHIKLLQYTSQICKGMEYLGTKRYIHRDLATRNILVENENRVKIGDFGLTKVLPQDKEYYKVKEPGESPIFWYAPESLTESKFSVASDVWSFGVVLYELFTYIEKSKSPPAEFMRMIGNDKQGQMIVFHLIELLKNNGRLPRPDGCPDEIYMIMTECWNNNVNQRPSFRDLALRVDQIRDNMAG
In general terms: In ATP-based viability assays light output follows the ATP content of the culture.
With `CN1C[C@@H]2C[C@H]1CN2c1ccc(Nc2nccc(-c3ccc(NC4CCCCC4)nc3)n2)cc1F` [compound 79, 4-(6-(cyclohexylamino)pyridin-3-yl)-N-(3-fluoro-4-((1S,4S)-5-methyl-2,5-diazabicyclo[2.2.1]heptan-2-yl)phenyl)pyrimidin-2-amine], the GI50 is under 1 µM.

Take `Cc1cc(Nc2nccc(-c3ccc(NCc4ccccc4)nc3)n2)ccc1N1C[C@@H]2C[C@H]1CN2C` [compound 80, 4-(6-(benzylamino)pyridin-3-yl)-N-(3-methyl-4-((1S,4S)-5-methyl-2,5-diazabicyclo[2.2.1]heptan-2-yl)phenyl)pyrimidin-2-amine]: the GI50 is under 1 µM.

`CN1C[C@@H]2C[C@H]1CN2c1ccc(Nc2nccc(-c3ccc(NCc4ccccc4)nc3)n2)cc1F` [compound 81, 4-(6-(benzylamino)pyridin-3-yl)-N-(3-fluoro-4-((1S,4S)-5-methyl-2,5-diazabicyclo[2.2.1]heptan-2-yl)phenyl)pyrimidin-2-amine]: the GI50 is under 1 µM.

In the case of `Cc1cc(-c2ccnc(Nc3ccc(N4CC5(C)CN(C)CC(C)(C4)C5)c(F)c3)n2)cnc1N1CCOCC1` [compound 82, 4-(5-methyl-6-(morpholin-4-yl)pyridin-3-yl)-N-(3-fluoro-4-(1,5,7-trimethyl-3,7-diazabicyclo[3.3.1]nonan-3-yl)phenyl)pyrimidin-2-amine], the GI50 was under 1 µM.

In the case of `CN1CC2(C)CN(c3ccc(Nc4nccc(-c5ccc(N(C)C)nc5)n4)cc3F)CC(C)(C1)C2` [compound 83, 4-(6-(dimethylamino)pyridin-3-yl)-N-(3-fluoro-4-(1,5,7-trimethyl-3,7-diazabicyclo[3.3.1]nonan-3-yl)phenyl)pyrimidin-2-amine], the GI50 was under 1 µM.

Regarding `CN1CC2(C)CN(c3ccc(Nc4nccc(-c5ccc(N(C)C)cc5)n4)cc3F)CC(C)(C1)C2` [compound 84, 4-(4-(dimethylamino)phenyl)-N-(3-fluoro-4-(1,5,7-trimethyl-3,7-diazabicyclo[3.3.1]nonan-3-yl)phenyl)pyrimidin-2-amine], the GI50 was under 1 µM.

As to `CN1CC2(C)CN(c3ccc(Nc4nccc(-c5ccc(N6CCOCC6)nc5)n4)cc3F)CC(C)(C1)C2` [compound 85, 4-(6-(morpholin-4-yl)pyridin-3-yl)-N-(3-fluoro-4-(1,5,7-trimethyl-3,7-diazabicyclo[3.3.1]nonan-3-yl)phenyl)pyrimidin-2-amine], the GI50 was under 1 µM.

Consider `Cc1cc(Nc2nccc(-c3cnc4c(c3)OCCN4)n2)ccc1N1C[C@@H]2C[C@H]1CN2C` [compound 86, 4-(3,4-dihydro-2H-pyrido[3,2-b][1,4]oxazin-7-yl)-N-(3-methyl-4-((1S,4S)-5-methyl-2,5-diazabicyclo[2.2.1]heptan-2-yl)phenyl)pyrimidin-2-amine], for which the GI50 was under 1 µM.

For the compound `CN1C[C@@H]2C[C@H]1CN2c1ccc(Nc2nccc(-c3cnc4c(c3)OCCN4)n2)cc1F` [compound 87, 4-(3,4-dihydro-2H-pyrido[3,2-b][1,4]oxazin-7-yl)-N-(3-fluoro-4-((1S,4S)-5-methyl-2,5-diazabicyclo[2.2.1]heptan-2-yl)phenyl)pyrimidin-2-amine], the GI50 was under 1 µM.

Regarding `Cc1cc(Nc2nccc(-c3cnc4c(c3)OCCN4)n2)ccc1N1CC2(C)CN(C)CC(C)(C1)C2` [compound 88, 4-(3,4-dihydro-2H-pyrido[3,2-b][1,4]oxazin-7-yl)-N-(3-methyl-4-(1,5,7-trimethyl-3,7-diazabicyclo[3.3.1]nonan-3-yl)phenyl)pyrimidin-2-amine], the GI50 was under 1 µM.

With `CN1CC2(C)CN(c3ccc(Nc4nccc(-c5cnc6c(c5)OCCN6)n4)cc3F)CC(C)(C1)C2` [compound 89, 4-(3,4-dihydro-2H-pyrido[3,2-b][1,4]oxazin-7-yl)-N-(3-fluoro-4-(1,5,7-trimethyl-3,7-diazabicyclo[3.3.1]nonan-3-yl)phenyl)pyrimidin-2-amine], the GI50 was in the range of 1 to 10 µM.

The record behind these values is US9624229B2, “Pyrimidine-2-amine compounds and their use as inhibitors of JAK kinases” (Rigel Pharmaceuticals, Inc., priority 2008, dated 2017).
